Assay results from patent US20250249013A1, “COMBINATION METABOLIC-EPIGENETIC TREATMENT FOR EARLY LUNG CANCER” (THE REGENTS OF THE UNIVERSITY OF CALIFORNIA, priority 2022, published 2025).

Experiments:
A549 cells [1] = assay: EZH2 inhibition with GSK126 in low glucose, western blot; type: cell-based, human; details: GSK126 0.25 μM
Method: (§1) Human lung cancer A549 (CCL-185) and NCI-H358 (CRL-5807) cells lines were purchased from American Type Culture Collection (ATCC, Manassas, VA). Cells were maintained in culture according to manufacturer protocol using Roswell Park Memorial Institute (RPMI) 1640 medium (Corning, Cat. #10-040CV) supplemented with 10% FBS and 5% 1× Pen-Strep and kept in 37° C. and 5% of CO2. Murine 2953A cell line was established in our lab from a KP lung tumor by tissue dissociation. This cell line was maintained in culture in Dulbecco's modified Eagle Medium (DMEM) medium (Corning, Cat. #10-017CV) with 5% FBS and 5% 1× Pen-Strep.
(§2) All experiments in cell lines were performed in biological triplicate. Cells were seeded at same confluence and grown for 5 days (and for some experiments overnight or up to 9 days or 30 days, as indicated in the figures and text) in different concentration of glucose: high (20 mM), low (1 mM) and for some experiments medium (5 mM), as indicated. We used mediums with glutamine and without glucose: RPMI (Corning Cat. #10-043CV) for A549 and NCI-H358 cells, DMEM (ThermoScientific Cat. #11566025) for 2953A cells, supplemented with 10% FBS, 5% of 1× Pen-Strep and complemented with D-Glucose to the desired final concentration, as indicated in the figures.
(§3) For total protein extraction, cells were harvested, washed twice with ice-cold PBS-EDTA (0.5 mm EDTA), lysed using RIPA buffer (50 mM Tris-HCl pH 7.6, 150 mM NaCl, 0.1% SDS, 0.5% C24H39NaO4, 1% NP-40, 2 mm EDTA, 50 mm NaF) for 15 min on ice and centrifuged at 13,000 rpm for 30 min at +4° C. The resulting protein extracts were quantified using BCA protein assay followed by analysis by SDS-PAGE and Western blotting.
(§4) Histones was extracted from A549, NCI-H358 and 2953A cell lines using the Histone extraction kit (Abcam) according to manufacturer instructions.
(§5) SDS-PAGE and Western blotting analyses were performed using standard protocols. For antibodies information, see Reagents and Tools Table. Western blot images were detected by iBright Imaging Systems (Thermo Fisher Scientific). The protein detected was normalized to Actin or H3 total antibodies, this last in case of histonic extract. Each immunodetection derived from the same membrane was performed with the same exposure times according to the manufacture's antibody guidelines and was cropped only for presentation purposes; this is indicated by a dotted line.

NCI-H358 cells [2] = assay: as above; type: cell-based, human; details: GSK126 0.25 μM
Method: as §1, §2, §3, §4, §5

LUAD = details: genetically engineered murine models and patient-derived xenografts; cited from earlier work
A549 and NCI-H358 cells = assay: RNA-seq, genes regulated consistently in both cell lines; type: cell-based, human; details: significantly regulated in at least 3 of the four conditions
Method: (§6) A549 and NCI-H358 cell lines were incubated in triplicate with high glucose (20 mM), low glucose (1 mM), and low glucose+dm-αKG (10 mM). Total RNA was extracted as previously described. RNA sequencing was performed by Med Genome. Sample quality control was performed using Quibit fluorometric (Agilent) and Tapestation bioanalyzer (Agilent). For library preparation TruSeq Stranded Total RNA kit (Illumina) was used and libraries were sequenced on NovaSeq platform (Illumina). The FASTQ data generated was used for gene expression analysis, performed as described in Nassa et al (Nassa et al, 2019).
Briefly, the raw sequence files generated (.fastq files) underwent quality control analysis using FASTQC (http://www.bioinformatics.babraham.ac.uk/projects/fastqc/) and adapter sequences were removed using Trimmomatic version 0.38 (Bolger et al, 2014) Filtered reads were aligned on human genome (assembly hg38) considering genes present in GenCode Release 35 (GRCh38.p12) using STAR v2.7.6a (Dobin et al, 2013) with standard parameters. Quantification of expressed genes was performed using featureCounts (Liao et al, 2014) and differentially expressed genes were identified using DESeq2 (Love et al, 2014). A given RNA was considered expressed when detected by at least ≥10 raw reads. […]

2953A cells = assay: αKG rescue in low glucose, western blot and RT-PCR; type: cell-based, mouse; details: low glucose 5 days
Method: as §1, §2
(§7) All αKG rescue experiments were conducted using 10 mM alpha-ketoglutarate (α-KG; Sigma) and α-Mannitol (Sigma) as osmotic control.
as §3, §4, §5
(§8) Total RNA was extracted from A549, NCI-H358 and 2953A by using TRI Reagent Solution (Applied Biosystem), according to manufacturer instruction. RNA concertation was assayed by Nanodrop 3000 spectrophotometer (Thermo Fisher Scientific). Then, 1 μg of RNA was treated with DNase I (Thermo Fisher Scientific) and used for cDNA preparation.
(§9) cDNA was prepared using 1 μg of RNA with SuperScript IV Reverse Transcriptase (Invitrogen). SYBR green-based RT-PCR kit (Biorad) was performed using human and mouse primers (See Table EV11). mRNA levels were normalized to GAPDH (ΔCt=Ctgene of interest-Ct GAPDH) and presented as relative mRNA expression (ΔΔCt=2-(ΔCtsample-ΔCtcontrol)). All primers were designed by NCBI Primer-BLAST and purchased from Integrated DNA Technologies.

A549 cells [3] = assay: RNA-seq, low glucose with dm-αKG; type: cell-based, human; details: A549, low glucose + dm-αKG 10 mM, five days
Method: as §6
(§10) Briefly, the raw sequence files generated (.fastq files) underwent quality control analysis using FASTQC (http://www.bioinformatics.babraham.ac.uk/projects/fastqc/) and adapter sequences were removed using Trimmomatic version 0.38 (Bolger et al, 2014) Filtered reads were aligned on human genome (assembly hg38) considering genes present in GenCode Release 35 (GRCh38.p12) using STAR v2.7.6a (Dobin et al, 2013) with standard parameters. Quantification of expressed genes was performed using featureCounts (Liao et al, 2014) and differentially expressed genes were identified using DESeq2 (Love et al, 2014). A given RNA was considered expressed when detected by at least ≥10 raw reads.
(§11) Differential expression was reported as Ifold-changel (FC)[…] along with associated adjusted pvalues≤0.05 computed according to Benjamini-Hochberg. Gene Set Enrichment Analysis (GSEA) was performed to examine pathway enrichment for the differential expressed genes with the Molecular Signature Database “Hallmarks” gene set collection (Liberzon et al, 2015). Only those with an FDR […] have been selected.

NCI-H358 cells [4] = assay: RNA-seq, low glucose with dm-αKG; type: cell-based, human; details: NCI-H358, low glucose + dm-αKG 10 mM, five days
Method: as §6, §10, §11

A549 cells [5] = assay: αKG rescue in low glucose, western blot and RT-PCR; type: cell-based, human
Method: as §1, §2, §7, §3, §4, §5, §8, §9

NCI-H358 cells [6] = assay: αKG rescue in low glucose, western blot and RT-PCR; type: cell-based, human
Method: as §1, §2, §7, §3, §4, §5, §8, §9

[7] = A549, low glucose (1 mM) 5 days
[8] = A549, low glucose 5 days, dm-αKG
[9] = A549, low glucose 5 days, dm-αKG 10 mM
[10] = NCI-H358, low glucose 5 days, dm-αKG
[11] = NCI-H358, low glucose 5 days, dm-αKG 10 mM

SMILES: CC[C@H](C)n1cc(C)c2c(C(=O)NCc3c(C)cc(C)[nH]c3=O)cc(-c3ccc(N4CCNCC4)nc3)cc21 [GSK126]
- expression of FoxA2, western blot (A549 cells [1]; [7]): rescued
- tri-methylation of H3K27, western blot (A549 cells [1]; [7]): rescued
- EZH2 activity (A549 cells [1]; A549, low glucose): inhibited
- EZH2 activity (NCI-H358 cells [2]): inhibited
- expression of FoxA2, western blot (NCI-H358 cells [2]): rescued
- tri-methylation of H3K27, western blot (NCI-H358 cells [2]): rescued

SMILES: Cc1ccc([C@@H]2O[C@H](CO)[C@@H](O)[C@H](O)[C@H]2O)cc1Cc1ccc(-c2ccc(F)cc2)s1 [canagliflozin]
- development of LUAD (LUAD): significantly delays
- survival (LUAD): prolongs survival
- tumor growth (LUAD): reduces tumor growth

SMILES: COC(=O)CCC(=O)C(=O)OC [dm-αKG, dimethyl-αKG]
- genes down-regulated by low glucose consistently in both cell lines and rescued by dm-αKG (A549 and NCI-H358 cells): 445 genes
- genes up-regulated by low glucose consistently in both cell lines and rescued by dm-αKG (A549 and NCI-H358 cells): 524 genes
- H3K4 hyper-methylation, western blot on histone extracts (2953A cells; dm-αKG): reverse
- H3K9 hyper-methylation, western blot on histone extracts (2953A cells; dm-αKG): reverse
- H3K27 hyper-methylation, western blot on histone extracts (2953A cells; dm-αKG): reverse
- H3K27 hypo-acetylation, western blot on histone extracts (2953A cells; dm-αKG): reverse
- GLUT1 expression, qPCR (2953A cells; dm-αKG 10 mM): reduced
- low glucose-induced inhibition of FoxA2 mRNA, qPCR (2953A cells; dm-αKG 10 mM): rescued
- low glucose-induced reduction in FOXA2 protein, western blot (2953A cells; dm-αKG 10 mM): rescued
- number of low glucose down-regulated genes rescued by dm-αKG (A549 cells [3]; 2,024 genes down-regulated by low glucose): 1,431 genes
- number of low glucose up-regulated genes rescued by dm-αKG (A549 cells [3]; 2,394 genes up-regulated by low glucose): 1,634 genes
- number of low glucose down-regulated genes rescued by dm-αKG (NCI-H358 cells [4]; 942 genes down-regulated by low glucose): 370 genes
- number of low glucose up-regulated genes rescued by dm-αKG (NCI-H358 cells [4]; 1,335 genes up-regulated by low glucose): 510 genes
- HIF1α and HIF2α protein, western blot, control condition (A549 cells [5]; A549, cells growing in low glucose (so in the source), dm-αKG): did not have any effect
- H3K4 hyper-methylation, western blot on histone extracts (A549 cells [5]; [8]): reverse
- H3K9 hyper-methylation, western blot on histone extracts (A549 cells [5]; [8]): reverse
- H3K27 hyper-methylation, western blot on histone extracts (A549 cells [5]; [8]): reverse
- H3K27 hypo-acetylation, western blot on histone extracts (A549 cells [5]; [8]): reverse
- low glucose-induced increase of Slug, western blot (A549 cells [5]; [8]): rescued
- low glucose-induced reduction in Snail, western blot (A549 cells [5]; [8]): partially rescued
- low glucose-induced reduction in ZEB1, western blot (A549 cells [5]; [8]): partially rescued
- low glucose-induced repression of PHD3 expression, RT-PCR (A549 cells [5]; [8]): rescued
- low glucose-induced up-regulation of HIF1α mRNA, RT-PCR (A549 cells [5]; [8]): rescued
- low glucose-induced up-regulation of HIF1α protein, western blot (A549 cells [5]; [8]): reversed
- low glucose-induced up-regulation of HIF2α mRNA, RT-PCR (A549 cells [5]; [8]): rescued
- low glucose-induced up-regulation of HIF2α protein, western blot (A549 cells [5]; [8]): reversed
- GLUT1 expression, qPCR (A549 cells [5]; [9]): reduced
- low glucose-induced inhibition of FoxA2 mRNA, qPCR (A549 cells [5]; [9]): rescued
- low glucose-induced reduction in FOXA2 protein, western blot (A549 cells [5]; [9]): rescued
- HIF1α and HIF2α protein, western blot, control condition (NCI-H358 cells [6]; NCI-H358, cells growing in low glucose (so in the source), dm-αKG): did not have any effect
- H3K4 hyper-methylation, western blot on histone extracts (NCI-H358 cells [6]; [10]): reverse
- H3K9 hyper-methylation, western blot on histone extracts (NCI-H358 cells [6]; [10]): reverse
- H3K27 hyper-methylation, western blot on histone extracts (NCI-H358 cells [6]; [10]): reverse
- H3K27 hypo-acetylation, western blot on histone extracts (NCI-H358 cells [6]; [10]): reverse
- low glucose-induced increase of Slug, western blot (NCI-H358 cells [6]; [10]): rescued
- low glucose-induced repression of PHD3 expression, RT-PCR (NCI-H358 cells [6]; [10]): rescued
- low glucose-induced up-regulation of HIF1α mRNA, RT-PCR (NCI-H358 cells [6]; [10]): rescued
- low glucose-induced up-regulation of HIF1α protein, western blot (NCI-H358 cells [6]; [10]): reversed
- low glucose-induced up-regulation of HIF2α mRNA, RT-PCR (NCI-H358 cells [6]; [10]): rescued
- low glucose-induced up-regulation of HIF2α protein, western blot (NCI-H358 cells [6]; [10]): reversed
- GLUT1 expression, qPCR (NCI-H358 cells [6]; [11]): reduced
- low glucose-induced inhibition of FoxA2 mRNA, qPCR (NCI-H358 cells [6]; [11]): rescued
- low glucose-induced inhibition of TTF-1 mRNA, qPCR (NCI-H358 cells [6]; [11]): rescued
- low glucose-induced reduction in FOXA2 protein, western blot (NCI-H358 cells [6]; [11]): rescued
- low glucose-induced reduction in TTF1 protein, western blot (NCI-H358 cells [6]; [11]): rescued
